Experimental data taken from EPA's ToxRefDB 2.

Tests used:
rabbit = details: Prenatal developmental toxicity study, new zealand white, Oral, Gavage/Intubation, dose end: 19 GD, group: maternal
rat [1] = details: Prenatal developmental toxicity study, sprague dawley, Oral, Gavage/Intubation, dose end: 15 GD
mouse [2] = details: Combined chronic toxicity/carcinogenicity, b6c3f1, Oral, Gavage/Intubation, dose end: 104 week, group: systemic
rat [3] = details: Multigenerational reproductive toxicity study, sprague dawley, Oral, Gavage/Intubation, dose end: 2 generation
rat [4] = details: Subchronic oral toxicity in rodents, fischer, Gavage/Intubation, dose end: 13 week, group: systemic
rat [5] = details: Combined chronic toxicity/carcinogenicity, fischer, Oral, Gavage/Intubation, dose end: 105 week, group: systemic
rat [6] = details: Fertility (Segment I), sprague dawley, Oral, Gavage/Intubation, dose end: 0 day
mouse [7] = details: Subchronic oral toxicity in rodents, b6c3f1, Gavage/Intubation, dose end: 13 week, group: systemic
[8] = reproductive / offspring survival early / offspring survival early other / NOS
[9] = group: developmental, developmental / developmental malformation / ureter / distended
[10] = group: maternal, systemic / in life observation / clinical signs / general pallor + systemic / in life observation / clinical signs / pale and/or opaque eyes…
[11] = systemic / pathology microscopic / liver / eosinophilic focus + systemic / pathology microscopic / liver / clear cell focus
[12] = systemic / pathology microscopic / liver / eosinophilic focus + systemic / pathology microscopic / liver / clear cell focus + systemic / …
[13] = group: offspring, systemic / in life observation / body weight / offspring (pup) weight
[14] = group: parental, systemic / in life observation / body weight / body weight + systemic / in life observation / body weight / dam weight + systemic / in life …
[15] = group: parental, systemic / in life observation / water consumption / water consumption + systemic / pathology gross / sperm measure / sperm morphology
[16] = group: reproductive, reproductive / offspring survival early / live fetuses / live fetuses
[17] = group: reproductive, reproductive / offspring survival early / live fetuses / live fetuses + reproductive / reproductive performance / gestational length / …
[18] = systemic / in life observation / body weight / body weight + systemic / pathology gross / sperm measure / sperm motility
[19] = systemic / in life observation / body weight / body weight + systemic / pathology microscopic / pituitary gland / hyperplasia + systemic / …
[20] = systemic / pathology microscopic / kidney / mineralization + systemic / pathology microscopic / kidney / nephropathy
[21] = group: maternal, reproductive / reproductive performance / fertility / fertility
[22] = group: parental, systemic / in life observation / body weight / body weight gain + systemic / in life observation / food consumption / food consumption + …
[23] = group: parental, systemic / pathology microscopic / testes / delayed spermiation, retained spermatids + systemic / pathology microscopic / testes / immature …
[24] = systemic / clinical chemistry / thyroxine (t4) / thyroxine (t4), total + systemic / hematology / reticulocyte / reticulocyte + systemic / …

O=C1c2ccccc2C(=O)C1C(=O)C(c1ccccc1)c1ccc(Cl)cc1 (stereo not drawn) [Chlorophacinone]
LOAEL (rabbit; [8]): 0.025 mg/kg/day | NOAEL (rabbit; [8]): 0.01 mg/kg/day | LEL (rabbit; reproductive / offspring survival early / offspring survival early other / NOS + systemic / in life observation / clinical signs / red or …): 0.025 mg/kg/day | NEL (rabbit; systemic / in life observation / clinical signs / red or crusty deposits around eyes, ears, nose, or mouth + systemic / in life observation…): 0.01 mg/kg/day | LEL (rat [1]; [9]): 0.0125 mg/kg/day | LOAEL (rat [1]; [9]): 0.0125 mg/kg/day | NEL (rat [1]; [9]): < 0.0125 mg/kg/day | NOAEL (rat [1]; [9]): < 0.0125 mg/kg/day | LEL (rat [1]; [10]): 0.1 mg/kg/day | LOAEL (rat [1]; [10]): 0.1 mg/kg/day | NEL (rat [1]; [10]): 0.05 mg/kg/day | NOAEL (rat [1]; [10]): 0.05 mg/kg/day

O=C(O)c1cc(N=Nc2ccc(S(=O)(=O)Nc3ccccn3)cc2)ccc1O [Sulfasalazine]
LOAEL (mouse [2]; [11]): 675 mg/kg/day | NOAEL (mouse [2]; [11]): < 675 mg/kg/day | LEL (mouse [2]; [12]): 675 mg/kg/day | NEL (mouse [2]; [12]): < 675 mg/kg/day | LEL (rat [3]; [13]): 100 mg/kg/day | LOAEL (rat [3]; [13]): > 400 mg/kg/day | NEL (rat [3]; [13]): < 100 mg/kg/day | NOAEL (rat [3]; [13]): ≥ 400 mg/kg/day | LOAEL (rat [3]; [14]): > 400 mg/kg/day | NOAEL (rat [3]; [14]): ≥ 400 mg/kg/day | LEL (rat [3]; [15]): 100 mg/kg/day | NEL (rat [3]; [15]): < 100 mg/kg/day | LEL (rat [3]; [16]): 100 mg/kg/day | NEL (rat [3]; [16]): < 100 mg/kg/day | LOAEL (rat [3]; [17]): > 400 mg/kg/day | NOAEL (rat [3]; [17]): ≥ 400 mg/kg/day | LEL (rat [4]; [18]): 84 mg/kg/day | NEL (rat [4]; [18]): < 84 mg/kg/day | LOAEL (rat [4]; [19]): 338 mg/kg/day | NOAEL (rat [4]; [19]): 169 mg/kg/day | NOAEL (rat [5]; systemic / organ weight / kidney / absolute + systemic / pathology microscopic / kidney / hyperplasia): 168 mg/kg/day | LOAEL (rat [5]; systemic / organ weight / kidney / absolute + systemic / pathology microscopic / kidney / hyperplasia + systemic / in life observation / …): 338 mg/kg/day | LEL (rat [5]; [20]): 84 mg/kg/day | NEL (rat [5]; [20]): < 84 mg/kg/day | LEL (rat [6]; [21]): 600 mg/kg/day | LOAEL (rat [6]; [21]): > 600 mg/kg/day | NEL (rat [6]; [21]): 300 mg/kg/day | NOAEL (rat [6]; [21]): ≥ 600 mg/kg/day | LOAEL (rat [6]; [22]): > 600 mg/kg/day | NOAEL (rat [6]; [22]): ≥ 600 mg/kg/day | LEL (rat [6]; [23]): 150 mg/kg/day | NEL (rat [6]; [23]): < 150 mg/kg/day | LEL (mouse [7]; [24]): 675 mg/kg/day | NEL (mouse [7]; [24]): < 675 mg/kg/day | LOAEL (mouse [7]; systemic / pathology microscopic / liver / hypertrophy): 1350 mg/kg/day | NOAEL (mouse [7]; systemic / pathology microscopic / liver / hypertrophy + systemic / clinical chemistry / alanine aminotransferase (alt/sgpt) / alanine …): 675 mg/kg/day
